Source: ChEMBL document CHEMBL1154805, “Alternaramide, a cyclic depsipeptide from the marine-derived fungus Alternaria sp. SF-5016” (2009)
Calls of active or inactive are those of the source. No cut-off for these calls is given here.

Key:
Bacillus subtilis [1] = test: Antibacterial activity against Bacillus subtilis KCTC 1021 at 400 ug/disk after 48 hrs by disk diffusion method; type: functional; conditions: KCTC 1021, 48 h, read-out: IZ
Staphylococcus aureus [2] = test: Antibacterial activity against Staphylococcus aureus KCTC 1928 at 400 ug/disk after 48 hrs by disk diffusion method; type: functional; conditions: KCTC 1928, 48 h, read-out: IZ
Proteus vulgaris = test: Antibacterial activity against Proteus vulgaris KACC 12674 at 400 ug/disk after 48 hrs by disk diffusion method; type: functional, organism-based
Candida albicans = test: Antifungal activity against Candida albicans KCTC 7965 at 400 ug/disk after 48 hrs by disk diffusion method; type: functional, organism-based
Cryptococcus neoformans = test: Antifungal activity against Filobasidiella neoformans KCTC 7003 at 400 ug/disk after 48 hrs by disk diffusion method; type: functional, organism-based
[3] = biological target: T1, Tyrosine-protein phosphatase non-receptor type 1 (Homo sapiens) (UniProt P18031); test: Inhibition of human recombinant PTP1B assessed as p-nitrophenol release at 150 ug/ml after 30 mins by spectrophotometry
T1 sequence (whole entry): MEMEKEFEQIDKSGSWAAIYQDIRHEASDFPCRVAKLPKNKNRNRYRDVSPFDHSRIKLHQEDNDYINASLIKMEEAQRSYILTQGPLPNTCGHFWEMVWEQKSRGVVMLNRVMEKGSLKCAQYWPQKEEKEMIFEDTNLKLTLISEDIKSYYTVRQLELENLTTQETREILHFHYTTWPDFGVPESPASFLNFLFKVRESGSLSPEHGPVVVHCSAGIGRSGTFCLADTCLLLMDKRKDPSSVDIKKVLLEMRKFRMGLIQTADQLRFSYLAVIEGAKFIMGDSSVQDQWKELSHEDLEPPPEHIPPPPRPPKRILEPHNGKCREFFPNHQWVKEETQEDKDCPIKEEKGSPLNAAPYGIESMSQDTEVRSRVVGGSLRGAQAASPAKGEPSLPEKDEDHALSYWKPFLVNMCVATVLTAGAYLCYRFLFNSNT

Staphylococcus aureus [4] = test: Antibacterial activity against Staphylococcus aureus KCTC 1928 at 50 ug/disk after 48 hrs by disk diffusion method; type: functional, organism-based
Bacillus subtilis [5] = test: Antibacterial activity against Bacillus subtilis KCTC 1021 at 5 ug/disk after 48 hrs by disk diffusion method; type: functional, organism-based

Molecule	zone of inhibition at 400 µg/disc (Bacillus subtilis [1]) [mm]	zone of inhibition at 400 µg/disc (Staphylococcus aureus [2]) [mm]	Activity (Proteus vulgaris)	Activity (Candida albicans)	Activity (Cryptococcus neoformans)	inhibition [3] [%]	inhibition zone (IZ) (Staphylococcus aureus [4]) [mm]	inhibition zone (IZ) (Bacillus subtilis [5]) [mm]
CC(C)[C@@H]1OC(=O)[C@@H]2CCCN2C(=O)[C@@H](Cc2ccccc2)NC(=O)[C@@H]2CCCN2C(=O)[C@@H](Cc2ccccc2)NC1=O [ALTERNARAMIDE]	8	13	inactive	inactive	inactive	49		
GENTAMICIN							13	16
